Laboratory results from patent publication US11266655B2, “Methods and compositions for treating urea cycle disorders” (Camp4 Therapeutics Corporation, priority 2019, dated 2022).
Counter-ions that a name gives are not always drawn. Like-named read-outs stand apart in the source and are kept apart here.

Columns and labels:
ARG1 = assay: RNA-seq of compound-treated primary human hepatocytes, ARG1 expression; format: cell-based; details: for Relative ARGI level vs Untreated (±Standard Deviation) / Fold change (Log 2) vs untreated, ARG1 expression: primary human hepatocytes; for Relative ARGI level vs Untreated (±Standard Deviation): triplicate (Table 17, FIG. 9); for Fold change (Log 2) vs untreated, ARG1 expression: RNA-seq (Table 7)
NAGS = format: cell-based, human
ASS1 = assay: RNA-seq of compound-treated primary human hepatocytes, ASS1 expression; format: cell-based; details: for Fold change (Log 2) vs untreated, ASS1 expression: RNA-seq (Table 4)
urea cycle genes = assay: RNA-seq of primary human hepatocytes, compounds that modulate multiple urea cycle-related genes; format: cell-based; details: primary human hepatocytes, RNA-seq; for Up-regulated Genes: urea cycle-related genes significantly increased (Table 10)
Protocol: To identify small molecules that modulate urea cycle enzymes, primary human hepatocytes were prepared as a monoculture, and at least one small molecule compound was applied to the cells.
RNA-seq was performed to determine the effects of the compounds on the expression of urea cycle enzymes in hepatocytes. Fold change was calculated by dividing the level of expression in the cell system that had been perturbed by the level of expression in an unperturbed system. Changes in expression having a p-value ≤0.05 were considered significant.
Significance was defined as an FPKM ≥1, a log 2 (fold change) ≥0.5, and a q-value of ≤0.05 for selected gene target.

SLC25A15 = assay: RNA-seq of compound-treated primary human hepatocytes, SLC25A15 expression; format: cell-based; details: for Increase in SLC25A15 gene expression (qualitative): Example 11, relative mRNA vs DMSO; for Fold change (Log 2) vs untreated, SLC25A15 expression: RNA-seq (Table 8)
CPS1 = assay: RNA-seq of compound-treated primary human hepatocytes, CPS1 expression; format: cell-based; details: primary human hepatocytes; for Relative CPS1 level vs Untreated (±Standard Deviation): triplicate (Table 19, FIG. 11)
[1] = 0.3 μM, primary human hepatocytes, triplicate (Table 21, FIG. 13)
[2] = primary human hepatocytes, RNA-seq (Table 6)
[3] = 3 μM, primary human hepatocytes, triplicate (Table 15, FIG. 7)
[4] = 10 μM, primary human hepatocytes, triplicate (Table 15, FIG. 7)
[5] = 3 μM, primary human hepatocytes, triplicate (Table 21, FIG. 13)
[6] = 10 μM, primary human hepatocytes, triplicate (Table 24, FIG. 16A-B)

## CC(=O)CC(c1ccccc1)c1c(O)c2ccccc2oc1=O (stereo not shown) [wafarin]
ARG1; 10 μM
  Relative ARGI level vs Untreated (±Standard Deviation): 1.33 ± 0.62

## CCc1ccc(CCOc2ccc(CC3SC(=O)NC3=O)cc2)nc1 (stereo not shown) [Pioglitazone HCl]
NAGS; [1]
  Relative NAGS level vs Untreated (±Standard Deviation): 1.33 ± 0.02

## CN(C)[C@@H]1C(O)=C(C(N)=O)C(=O)[C@@]2(O)C(O)=C3C(=O)c4c(O)c(NC(=O)CN5CCCC5)cc(F)c4C[C@H]3C[C@@H]12 [TP-434 (Eravacycline), Eravacycline]
ASS1; primary human hepatocytes
  Fold change (Log 2) vs untreated, ASS1 expression: 0.76 Log 2
NAGS; [2]
  Fold change (Log 2) vs untreated, NAGS expression: 1.5 Log 2

## N#CCNC(=O)c1ccc(-c2ccnc(Nc3ccc(N4CCOCC4)cc3)n2)cc1 [Momelotinib]
Urea cycle genes
  number of urea cycle genes whose expression was significantly up-regulated: three
  Up-regulated Genes: CPS1, OTC, ARG1

## CC(C)c1cc(CNc2nc(Nc3cc(C4CC4)[nH]n3)cc(N3CCN(C)CC3)n2)on1 [XL228]
ASS1; 1 μM, primary human hepatocytes, triplicate (Table 15, FIG. 7)
  Relative ASS1 level vs Untreated (±Standard Deviation): 1.83 ± 0.02
ASS1; [3]
  Relative ASS1 level vs Untreated (±Standard Deviation): 1.45 ± 0.10
ASS1; [4]
  Relative ASS1 level vs Untreated (±Standard Deviation): 2.05 ± 0.00
ARG1; 0.3 μM
  Relative ARGI level vs Untreated (±Standard Deviation): 1.47 ± 0.11
ARG1; 1 μM
  Relative ARGI level vs Untreated (±Standard Deviation): 2.05 ± 0.11
ARG1; 3 μM
  Relative ARGI level vs Untreated (±Standard Deviation): 2.15 ± 0.04
ARG1; Example 11, relative mRNA vs DMSO
  increase in ARG1 gene expression (Tables 17, 18, FIG. 9, 10): greatest increase
SLC25A15
  Increase in SLC25A15 gene expression (qualitative): greatest increase

## Cc1ccc(F)c(NC(=O)Nc2ccc(-c3cccc4[nH]nc(N)c34)cc2)c1 [Linifanib]
NAGS; [5]
  Relative NAGS level vs Untreated (±Standard Deviation): 1.32 ± 0.04

## O=C1CCC(N2C(=O)c3ccccc3C2=O)C(=O)N1 (stereo not shown) [Thalidomide]
NAGS; [2]
  Fold change (Log 2) vs untreated, NAGS expression: 1.1 Log 2
Urea cycle genes
  number of urea cycle genes whose expression was significantly up-regulated: five
  Up-regulated Genes: NAGS, CPS1, ALS, OTC, ARG1

## [H]/N=C(/N)N/C(=N/[H])NCCc1ccccc1 [Phenformin]
NAGS
  Fold change (Log 2) vs untreated, NAGS expression: 1.38 Log 2

## NC(=O)c1ccc(I)c([N+](=O)[O-])c1 [Iniparib (BSI-]
NAGS
  Relative NAGS level vs Untreated (±Standard Deviation): 1.35 ± 0.27

## Cc1cc(C(=O)NOCCO)c(Nc2ccc(I)cc2F)n(C)c1=O [AZD8330]
CPS1; 0.3 μM
  Relative CPS1 level vs Untreated (±Standard Deviation): 1.33 ± 0.03
CPS1; 3 μM
  Relative CPS1 level vs Untreated (±Standard Deviation): 1.60 ± 0.24

## O=C(NCCCn1ccnc1)c1cc(-c2ccco2)on1 [SKL2001]
NAGS
  Fold change (Log 2) vs untreated, NAGS expression: 0.95 Log 2

## C=C1/C(=C\C=C2/CCC[C@]3(C)[C@@H]([C@H](C)CCCC(C)(C)O)CC[C@@H]23)C[C@@H](O)C[C@@H]1O [Calcitriol]
NAGS; [2]
  Fold change (Log 2) vs untreated, NAGS expression: 1.2 Log 2

## COc1nc(N)nc2c1ncn2[C@@H]1O[C@H](COP(=O)(N[C@@H](C)C(=O)OCC(C)(C)C)Oc2cccc3ccccc23)[C@@H](O)[C@@]1(C)O (stereo partly shown) [bms-986094 (inx-189)]
SLC25A15; primary human hepatocytes
  Fold change (Log 2) vs untreated, SLC25A15 expression: 1.18 Log 2

## O=C(NOCCO)c1cc(CN2OCCCC2=O)c(F)c(F)c1Nc1ccc(I)cc1F [Compound R04987655]
CPS1; 1 μM
  Relative CPS1 level vs Untreated (±Standard Deviation): 1.46 ± 0.27
CPS1; 10 μM
  Relative CPS1 level vs Untreated (±Standard Deviation): 1.33 ± 0.21

## N#CC(c1ccnc(OCc2ccc(CN3CCOCC3)cc2)n1)c1nc2ccccc2s1 (stereo not shown) [Bentamapimod]
ASS1; 10 µM
  Relative ASS1 level vs Untreated (±Standard Deviation): 1.90 ± 0.22

## CN1CCN(CCCN2c3ccccc3Sc3ccc(C(F)(F)F)cc32)CC1 [TFP, Trifluoperazine]
NAGS; [2]
  Fold change (Log 2) vs untreated, NAGS expression: 0.58 Log 2

## O=C1NC(=O)/C(=C/c2cccc(C(F)(F)F)c2)S1 [SMI-4a]
ASS1; primary human hepatocytes
  Fold change (Log 2) vs untreated, ASS1 expression: 0.69 Log 2
NAGS
  Fold change (Log 2) vs untreated, NAGS expression: 1.25 Log 2

## O=C(NOCCO)c1cc(CN2OCCCC2=O)c(F)c(F)c1Nc1ccc(I)cc1F [RO4987655)]
SLC25A15; [6]
  Relative SLC25A15 level vs Untreated (±Standard Deviation): 1.31 ± 0.13

## TNF-a
ARG1
  Fold change (Log 2) vs untreated, ARG1 expression: 1.87 Log 2

## COc1cc(Nc2ncc(F)c(Nc3ccc4c(n3)N(COP(=O)(O)O)C(=O)C(C)(C)O4)n2)cc(OC)c1OC [R788 (fostamatinib disodium hexahydrate), fostamatinib disodium hexahydrate]
Urea cycle genes
  number of urea cycle genes whose expression was significantly up-regulated: three
  Up-regulated Genes: CPS1, ARG1, SLC25A15

## CCN(CC)CCNC(=O)c1c(C)[nH]c(/C=C2\C(=O)Nc3ccc(F)cc32)c1C [Sunitinib]
ASS1; [3]
  Relative ASS1 level vs Untreated (±Standard Deviation): 2.25 ± 0.45
ASS1; [4]
  Relative ASS1 level vs Untreated (±Standard Deviation): 2.70 ± 0.37
NAGS; [1]
  Relative NAGS level vs Untreated (±Standard Deviation): 1.40 ± 0.03
NAGS; 1 μM, primary human hepatocytes, triplicate (Table 21, FIG. 13)
  Relative NAGS level vs Untreated (±Standard Deviation): 1.63 ± 0.42
ARG1; 10 μM
  Relative ARGI level vs Untreated (±Standard Deviation): 1.36 ± 0.01
SLC25A15; 0.3 μM, primary human hepatocytes, triplicate (Table 24, FIG. 16A-B)
  Relative SLC25A15 level vs Untreated (±Standard Deviation): 1.32 ± 0.08
SLC25A15; 3 μM, primary human hepatocytes, triplicate (Table 24, FIG. 16A-B)
  Relative SLC25A15 level vs Untreated (±Standard Deviation): 2.36 ± 0.20
SLC25A15; [6]
  Relative SLC25A15 level vs Untreated (±Standard Deviation): 2.43 ± 0.29

## N#CC(c1ccnc(OCc2ccc(CN3CCOCC3)cc2)n1)c1nc2ccccc2s1 (stereo not shown) [AS602801]
SLC25A15; 10 µM
  Relative SLC25A15 level vs Untreated (±Standard Deviation): 2.22 ± 0.24

## CCCC(=O)O[C@@H]1[C@@H](C)[C@@]2(O)[C@@H](C=C(CO)C[C@]3(O)C(=O)C(C)=C[C@@H]23)[C@@H]2C(C)(C)[C@]12OC(=O)CCC [Phorbol 12, 13-dibutyrate]
NAGS; [2]
  Fold change (Log 2) vs untreated, NAGS expression: 0.62 Log 2

## O=C(N[C@H]1CN2CCC1CC2)c1cc2cccc(Cl)c2s1 [EVP-6124 (hydrochloride) (encenicline), encenicline]
NAGS; [2]
  Fold change (Log 2) vs untreated, NAGS expression: 0.75 Log 2

## CCn1c(=O)c(-c2cc[nH]n2)cc2c(C)nc(N)nc21 [Voxtalisib]
ASS1; [4]
  Relative ASS1 level vs Untreated (±Standard Deviation): 1.43 ± 0.13
NAGS; [1]
  Relative NAGS level vs Untreated (±Standard Deviation): 1.35 ± 0.04
NAGS; [5]
  Relative NAGS level vs Untreated (±Standard Deviation): 1.33 ± 0.15
NAGS; 10 μM, primary human hepatocytes, triplicate (Table 21, FIG. 13)
  Relative NAGS level vs Untreated (±Standard Deviation): 1.78 ± 0.04
ARG1; 3 μM
  Relative ARGI level vs Untreated (±Standard Deviation): 1.34 ± 0.16
ARG1; 10 μM
  Relative ARGI level vs Untreated (±Standard Deviation): 1.48 ± 0.18

## C[C@]12C=CC(=O)C=C1CC[C@@H]1[C@@H]2C(=O)C[C@@]2(C)[C@H]1CC[C@]2(O)C(=O)CO [prednisone]
NAGS; [2]
  Fold change (Log 2) vs untreated, NAGS expression: 1 Log 2
Urea cycle genes
  number of urea cycle genes whose expression was significantly up-regulated: three
  Up-regulated Genes: CPS1, NAGS, ARG1

## C[C@]12C[C@H](O)[C@H]3[C@@H](CCC4=CC(=O)CC[C@@]43C)[C@@H]1CC[C@@H]2C(=O)CO [Corticosterone]
SLC25A15; primary human hepatocytes
  Fold change (Log 2) vs untreated, SLC25A15 expression: 0.96 Log 2

## CCn1c(=O)c(-c2ccc(-c3cncs3)cc2Cl)cc2cnc(Nc3ccc(N4CCN(C)CC4)cc3)nc21 [FRAX597]
Urea cycle genes
  number of urea cycle genes whose expression was significantly up-regulated: five
  Up-regulated Genes: CPS1, ASS1, OTC, ARG1, SLC25A15

## Cc1cc(C)c(/C=C2\C(=O)Nc3ccccc32)[nH]1 [Semaxanib]
NAGS; [2]
  Fold change (Log 2) vs untreated, NAGS expression: 2 Log 2

## CS[C@H]1SC[C@H]2C(=O)N(C)[C@@H](C(C)C)C(=O)OC[C@@H](NC(=O)c3cnc4ccccc4n3)C(=O)N[C@@H](C)C(=O)N(C)[C@@H]1C(=O)N(C)[C@@H](C(C)C)C(=O)OC[C@@H](NC(=O)c1cnc3ccccc3n1)C(=O)N[C@@H](C)C(=O)N2C [Echinomycin]
SLC25A15
  Increase in SLC25A15 gene expression (qualitative): greatest increase
Urea cycle genes
  number of urea cycle genes whose expression was significantly up-regulated: six

B1: Wnt3 a (protein, UniProt P56704 19-352, looked up)
Protein Wnt-3a: SYPIWWSLAVGPQYSSLGSQPILCASIPGLVPKQLRFCRNYVEIMPSVAEGIKIGIQECQHQFRGRRWNCTTVHDSLAIFGPVLDKATRESAFVHAIASAGVAFAVTRSCAEGTAAICGCSSRHQGSPGKGWKWGGCSEDIEFGGMVSREFADARENRPDARSAMNRHNNEAGRQAIASHMHLKCKCHGLSGSCEVKTCWWSQPDFRAIGDFLKDKYDSASEMVVEKHRESRGWVETLRPRYTYFKVPTERDLVYYEASPNFCEPNPETGSFGTRDRTCNVSSHGIDGCDLLCCGRGHNARAERRREKCRCVFHWCCYVSCQECTRVYDVHTCK
SLC25A15; primary human hepatocytes
  Fold change (Log 2) vs untreated, SLC25A15 expression: 0.7 Log 2

B2: GDF10 (BMP3b): member of the BMP family and the TGF-B superfamily (protein, UniProt P55107 369-478, looked up)
Growth/differentiation factor …: QWDEPRVCSRRYLKVDFADIGWNEWIISPKSFDAYYCAGACEFPMPKIVRPSNHATIQSIVRAVGIIPGIPEPCCVPDKMNSLGVLFLDENRNVVLKVYPNMSVDTCACR
CPS1; RNA-seq
  CPS1 expression, Fold change (Log 2) vs untreated: 1.66 Log 2

B3: GDF 10 (BMP3b) (protein, UniProt P55107 369-478, looked up)
Growth/differentiation factor …: QWDEPRVCSRRYLKVDFADIGWNEWIISPKSFDAYYCAGACEFPMPKIVRPSNHATIQSIVRAVGIIPGIPEPCCVPDKMNSLGVLFLDENRNVVLKVYPNMSVDTCACR
ARG1
  Fold change (Log 2) vs untreated, ARG1 expression: 0.97 Log 2
